Reference: patent publication US7582655B2, “Antineoplastic compounds” (University of Saskatchewan, priority 2005, dated 2009)
Read-outs that look alike come from different tables or passages of the source. Values belong to the molecule of their own block, whether it stands above or below them.

Assays:
[1] = test system: murine L-5178 lymphoma cells transfected with the human MDR1 gene; test: MDR reversal, rhodamine 123 fluorescence activity ratio; conditions: FAR >1 indicates MDR reversal; for FAR value 4 μg/ml: compound 4 μg/ml; for FAR value 40 μg/ml: compound 40 μg/ml
Description: A solution of the test compound (2 mg/ml, 10 μl) in dimethylsulfoxide was added to aliquots of the cell suspension and incubated at room temperature for 10 minutes. […] The cells were washed twice and resuspended in PBS (pH 7.4) after which the fluorescence was measured using a Beckton Dickinson FACScan instrument. The fluorescence of the cells was measured in treated MDR cells (F1), untreated MDR cells (F2), treated parental cells (F3) […] were obtained from the following equation, viz (F1/F2)/(F3/F4).

[2] = test system: human squamous cell carcinomas HSC-2; test: Cytotoxicity CC50, MTT assay, HSC-2
Description: (§1) In addition, the compounds were evaluated against human squamous cell carcinomas (HSC-2 and HSC-4) and human promyelocytic leukemia neoplasms (HL-60) and compared with normal cells, i.e. human gingival fibroblasts (HGF), human pulp cells (HPC) and human periodontal ligament fibroblasts (HPLF).
(§2) MTT stands for 3-(4,5-dimethylthiazol-2-yl)-2,5-diphenyltetrazolium bromide). The cells were incubated with varying concentrations of the compounds along with untreated cells for 24 h and the absorbance at 540 nm measured. In the case of the HL-60 assay, the trypan blue exclusion method was followed and cell viability was determined using a haemocytometer. The CC50 values were obtained from dose-response curves (Sakagami, H.; Satoh, K.; Ohata, H.; Takahashi, H.; Yoshida, H.; Iida, M.; Kuribayashi, N.; Sakagami, T.; Momose, K.; Takeda, M. Anticancer Res. 1996, 16, 2635-2644). The general methods used in culturing the cells employed in these cytotoxicity experiments have been described previously (Kawase, M.; Sakagami, H.; Motohashi, N.; Hauer, H.; Chatterjee, S. S.; Spengler, G.; Vigyikanne, A. V.; Molnár, A.; Molnár, J. In Vivo 2005, 19, 705-712; and Takeuchi, R.; Hoshijima, H.; Onuki, N.; Nagasaka, H.; Chowdhury, S. A.; Kawase, M.; Sakagami, H. Anticancer Res. 2005, 25, 4037-4042). In brief, the malignant cells were obtained from Professor Nagumo, Showa University, Japan. The HGF, HPC and HPLF cells were prepared from human periodontal tissue after obtaining informed consent according to the guidelines of Meikai University Ethics Committee, Japan (No. 0206). Since normal cells have a short lifespan, cells at the 3-7 population doubling time were used. With the exception of the HL-60 neoplasm, the cells were cultured in DMEM containing heat-inactivated FBS (10%) at 37° C. in a humidified carbon dioxide atmosphere and subcultured by trypsinization. The HL-60 cells were cultured in a similar fashion except that RPMI 1640 media was employed.

[3] = test system: human squamous cell carcinomas HSC-4; test: Cytotoxicity CC50, MTT assay, HSC-4
Description: as §1, §2

[4] = test system: human promyelocytic leukemia HL-60; test: Cytotoxicity CC50, trypan blue exclusion, HL-60
Description: as §1, §2

[5] = test system: HGF, HPC and HPLF cells versus HSC-2, HSC-4 and HL-60 neoplasms; test: Selectivity index, normal versus malignant cells; format: cell-based, human; conditions: average CC50 of HGF, HPLF divided by average CC50 of HSC-2, HSC-4, HL-60
Description: as §1, §2

in vitro [6] = conditions: human
Description: as §1, §2

in vitro [7] = conditions: human; remark: listed apart in the source
Description: as §1, §2

in vitro [8] = conditions: human; remark: listed apart in the source
Description: as §1, §2

human tumour cell lines = test: Panel of human tumour cell lines, all cell lines (mean graph midpoint); format: cell-based; conditions: for IC50: mean graph midpoint, average of 49 (38-59) human tumour cell lines, 48 h incubation, read-out: All cell lines IC50
Description: A number of compounds of the invention were further assessed against numerous human malignant cell lines. An average of 49 cell lines from nine different neoplastic diseases, namely leukemia, melanoma, non-small cell lung, colon, central nervous system, ovarian, renal, prostate, and breast cancers were employed.
(§3) In addition, both 5-fluorouracil and melphalan were evaluated towards 57 cell lines. […] MG MID is the average of the potencies of the compound to approximately 50 neoplastic cell lines.

COLO 205 = test: Human tumour cell line panel, colon cancer COLO 205; format: cell-based; conditions: read-out: Colon cancer cells, IC50(μM) COLO 205
Description: as §3

HCT 116 = test: Human tumour cell line panel, colon cancer HCT 116; format: cell-based; conditions: read-out: Colon cancer cells, IC50(μM) HCT 116
Description: as §3

HCT 15 = test: Human tumour cell line panel, colon cancer HCT 15; format: cell-based; conditions: read-out: Colon cancer cells, IC50(μM) HCT 15
Description: as §3

KM 12 = test: Human tumour cell line panel, colon cancer KM 12; format: cell-based; conditions: read-out: Colon cancer cells, IC50(μM) KM 12
Description: as §3

SW 620 = test: Human tumour cell line panel, colon cancer SW 620; format: cell-based; conditions: read-out: Colon cancer cells, IC50(μM) SW 620
Description: as §3

HCC 2998 = test: Human tumour cell line panel, colon cancer HCC 2998; format: cell-based; conditions: read-out: Colon cancer cells, IC50(μM) HCC 2998
Description: as §3

K 562 = test: Human tumour cell line panel, leukemic K 562; format: cell-based; conditions: read-out: Leukemic cells, IC50(μM) K 562
Description: as §3

RPMI 8226 = test: Human tumour cell line panel, leukemic RPMI 8226; format: cell-based; conditions: read-out: Leukemic cells, IC50(μM) RPMI 8226
Description: as §3

HL 60 = test: Human tumour cell line panel, leukemic HL 60; format: cell-based; conditions: read-out: Leukemic cells, IC50(μM) HL 60
Description: as §3

SR = test: Human tumour cell line panel, leukemic SR; format: cell-based; conditions: 48 h, read-out: Leukemic cells, IC50(μM) SR
Description: as §3

[9] = test system: human gingival fibroblasts (HGF); test: in vitro
Description: as §1, §2

human pulp cells (HPC) = test: in vitro
Description: as §1, §2

[10] = test system: human periodontal ligament fibroblasts (HPLF); test: in vitro
Description: as §1, §2

[11] = test system: HSC-2, HSC-4 and HL-60 malignant cells; test: Average CC50 for malignant cells
Description: as §1, §2

mice = conditions: five consecutive daily doses of 240 mg/kg; cited from earlier work
[12] = test system: murine lymphocytic leukemia P388/MRI cell line; conditions: cited from earlier work
[13] = test system: synthetic DNA, poly(d(AT)); conditions: cited from earlier work
[14] = Homo sapiens, HSC-2, 24 h, read-out: CC50(μM) HSC-2
[15] = Homo sapiens, HSC-4, 24 h, read-out: CC50(μM) HSC-4
[16] = Homo sapiens, HL-60, 24 h, read-out: CC50(μM) HL-60

- melting point: 170 to 172 °C
Structure (SMILES): CCN(CC)CCOc1ccc(C(=O)O)cc1.Cl

Structure (SMILES): Cc1ccc(C=C2CNCC(=Cc3ccc(C)cc3)C2=O)cc1 [Compound 1d, 3,5-bis(4-Methylphenylmethylene)-4-piperidone]
- FAR value 4 μg/ml [1]: 3.26
- FAR value 40 μg/ml [1]: 4.03
- CC50 [2, 14]: 3.9 µM
- CC50 [3, 15]: 9.3 µM
- CC50 [4, 16]: 4.5 µM
- SI (selectivity index) [5]: 29

- melting point: 165 to 166 °C
Structure (SMILES): O=C1C(=Cc2ccccc2)CN(C(=O)c2ccccc2)CC1=Cc1ccccc1 [Compound 2a, 1-Benzoyl-3,5-bis(phenylmethylene)-4-piperidone]

- melting point: 177 to 178 °C
Structure (SMILES): COc1ccc(C(=O)N2CC(=Cc3ccccc3)C(=O)C(=Cc3ccccc3)C2)cc1 [Compound 2b, 1-(4-Methoxybenzoyl)-3,5-bis(phenylmethylene)-4-piperidone]

Structure (SMILES): CCN(CC)CCOc1ccc(C(=O)N2CC(=Cc3ccc(Cl)cc3)C(=O)C(=Cc3ccc(Cl)cc3)C2)cc1.Cl [Compound 4b, 3,5-bis(4-Chlorophenylmethylene)-1-[4-(2-diethylaminoethoxy)phenylcarbonyl]-4-piperidone hydrochloride]
- FAR value 4 μg/ml [1]: 118
- FAR value 40 μg/ml [1]: 99.7
- CC50 [2, 14]: 160 µM
- CC50 [3, 15]: 34 µM
- CC50 [4, 16]: 46 µM
- CC50 at 24 h (in vitro [6]): 230 µM
- CC50 at 24 h (in vitro [7]): > 400 µM
- CC50 at 24 h (in vitro [8]): > 400 µM
- SI (selectivity index) [5]: >4.3

Structure (SMILES): CCN(CC)CCOc1ccc(C(=O)N2CC(=Cc3ccc([N+](=O)[O-])cc3)C(=O)C(=Cc3ccc([N+](=O)[O-])cc3)C2)cc1.Cl [Compound 4c, 1-[4-(2-Diethylaminoethoxy)phenylcarbonyl]-3,5-bis(4-nitrophenylmethylene)-4-piperidone hydrochloride]
- FAR value 4 μg/ml [1]: 77.5
- FAR value 40 μg/ml [1]: 14.1
- CC50 [2, 14]: 0.98 µM
- CC50 [3, 15]: 1.1 µM
- CC50 [4, 16]: 0.26 µM
- SI (selectivity index) [5]: 6.6

Structure (SMILES): CCN(CC)CCOc1ccc(C(=O)N2CC(=Cc3ccc(C)cc3)C(=O)C(=Cc3ccc(C)cc3)C2)cc1.Cl [Compound 4d, 1-[4-(2-Diethylaminoethoxy)phenylcarbonyl]-3,5-bis(4-methylphenylmethylene)-4-piperidone hydrochloride]
- FAR value 4 μg/ml [1]: 106
- FAR value 40 μg/ml [1]: 66.6
- CC50 [2, 14]: 2.2 µM
- CC50 [3, 15]: 2.3 µM
- CC50 [4, 16]: 0.79 µM
- SI (selectivity index) [5]: 3.3

Structure (SMILES): Cl.O=C1C(=Cc2ccc(Cl)cc2)CN(C(=O)c2ccc(OCCN3CCCCC3)cc2)CC1=Cc1ccc(Cl)cc1 [Compound 5b, 3,5-bis(4-Chlorophenylmethylene)-1-[4-{2-(1-piperidinyl)ethoxy}phenylcarbonyl]-4-piperidone hydrochloride]
- IC50 (human tumour cell lines): > 11.5 µM
- S.I. (selectivity index) (human tumour cell lines; ratio of the IC50 figures for the least and most sensitive cell lines): >66.1
- IC50 (COLO 205; Homo sapiens, COLO 205, 48 h): 15.8 µM
- IC50 (HCT 116; Homo sapiens, HCT-116, 48 h): 47.9 µM
- IC50 (HCT 15; Homo sapiens, HCT-15, 48 h): 49 µM
- IC50 (KM 12; Homo sapiens, KM12, 48 h): 19.1 µM
- IC50 (SW 620; Homo sapiens, SW-620, 48 h): 3.55 µM
- IC50 (HCC 2998; Homo sapiens, HCC 2998, 48 h): 1.58 µM
- IC50 (K 562; Homo sapiens, K562, 48 h): 4.37 µM
- IC50 (RPMI 8226; Homo sapiens, RPMI-8226, 48 h): 0.759 µM
- IC50 (HL 60; Homo sapiens, HL-60, 48 h): 20.4 µM
- IC50 (SR; Homo sapiens, SR): 2.29 µM
- FAR value 4 μg/ml [1]: 157
- FAR value 40 μg/ml [1]: 133
- CC50 [2, 14]: 110 µM
- CC50 [3, 15]: 48 µM
- CC50 [4, 16]: 63 µM
- CC50 at 24 h (in vitro [6]): > 400 µM
- CC50 at 24 h (in vitro [7]): > 400 µM
- CC50 at 24 h (in vitro [8]): 340 µM
- SI (selectivity index) [5]: >5.2

- IC50 (human tumour cell lines): > 41.7 µM
- IC50 (COLO 205; 48 h): 20.4 µM
- IC50 (HCT 116; 48 h): > 50.1 µM
- IC50 (HCT 15; 48 h): > 50.1 µM
- IC50 (KM 12; 48 h): 43.7 µM
- IC50 (SW 620; 48 h): 30.2 µM
- IC50 (HCC 2998; 48 h): 28.2 µM
- IC50 (K 562; 48 h): 43.7 µM
- IC50 (RPMI 8226; 48 h): 17.4 µM
- IC50 (HL 60; 48 h): > 50.1 µM
- IC50 (SR): 38 µM
Structure (SMILES): CC[N+](C)(CC)CCOc1ccc(C(=O)N2CC(=Cc3ccccc3)C(=O)C(=Cc3ccccc3)C2)cc1.[I-] [Compound 7a, 1-[4-(2-Diethylaminoethoxy)phenylcarbonyl]-3,5-bis(phenylmethylene)-4-piperidone methoiodide]
- FAR value 4 μg/ml [1]: 1.37
- FAR value 40 μg/ml [1]: 1.05
- CC50 [2]: 130 µM
- CC50 [3]: 82 µM
- CC50 [4]: 82 µM
- CC50 [9]: 160 µM
- CC50 (human pulp cells (HPC)): 170 µM
- CC50 [10]: 79 µM
- CC50(μM) ave [11]: 98 µM

- IC50 (human tumour cell lines): 7.76 µM
- IC50 (COLO 205; 48 h): 8.91 µM
- IC50 (HCT 116; 48 h): 14.1 µM
- IC50 (HCT 15; 48 h): 9.33 µM
- IC50 (KM 12; 48 h): 9.33 µM
- IC50 (SW 620; 48 h): 10.5 µM
- IC50 (HCC 2998; 48 h): 6.17 µM
- IC50 (K 562; 48 h): 1.35 µM
- IC50 (RPMI 8226; 48 h): 1.26 µM
- IC50 (HL 60; 48 h): 11.8 µM
- IC50 (SR): 22.9 µM
Structure (SMILES): CC[N+](C)(CC)CCOc1ccc(C(=O)N2CC(=Cc3ccc(C)cc3)C(=O)C(=Cc3ccc(C)cc3)C2)cc1.[I-] [Compound 7d, 1-[4-(2-Diethylaminoethoxy)phenylcarbonyl]-3,5-bis(4-methylphenylmethylene)-4-piperidone methoiodide]
- FAR value 4 μg/ml [1]: 1.93
- FAR value 40 μg/ml [1]: 114
- CC50 [2]: 17 µM
- CC50 [3]: 17 µM
- CC50 [4]: 16 µM
- CC50 [9]: 34 µM
- CC50 (human pulp cells (HPC)): 29 µM
- CC50 [10]: 8.3 µM
- CC50(μM) ave [11]: 17 µM

Structure (SMILES): O=C1C(=Cc2ccccc2)CNCC1=Cc1ccccc1 [Compound B1]
- Fatalities in mice (mice): did not induce fatalities
- Cytotoxic activity [12]: possesses cytotoxic activity
- Binding to poly(d(AT)) [13]: does bind
